The results in this text go back to ChEMBL document CHEMBL1201862, “PubChem BioAssay data set” (2004).

A short description of assay [1]: P. falciparum Dd2 growth inhibitors, dose response, SYBR Green, cherry-picked samples (AID 1159567). Format: functional, cell-based.
The nature of assay [2]: cytotoxicity in OVCAR8 ovarian cancer cells, dose response, PAX8 project, cell-based, plate reader, dry powder samples (AID 743197). Format: functional. The following applies: OVCAR-8.
The target in another assay is Paired box protein Pax-8 (Homo sapiens, UniProt Q06710). The experiment in a line: inhibitors of PAX8-driven TPO luciferase reporter, dose response, RMG-I cells, cherry-pick (AID 687027).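 Also: luciferase reporter driven by Pax8 target thyroperoxidase promoter measured by SteadyGlo luminescence.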 The assay is classed as functional, cell-based. On the technique in general: In a reporter assay the amount or activity of a reporter protein is the signal.
Paired box protein Pax-8, sequence (Q06710 whole entry): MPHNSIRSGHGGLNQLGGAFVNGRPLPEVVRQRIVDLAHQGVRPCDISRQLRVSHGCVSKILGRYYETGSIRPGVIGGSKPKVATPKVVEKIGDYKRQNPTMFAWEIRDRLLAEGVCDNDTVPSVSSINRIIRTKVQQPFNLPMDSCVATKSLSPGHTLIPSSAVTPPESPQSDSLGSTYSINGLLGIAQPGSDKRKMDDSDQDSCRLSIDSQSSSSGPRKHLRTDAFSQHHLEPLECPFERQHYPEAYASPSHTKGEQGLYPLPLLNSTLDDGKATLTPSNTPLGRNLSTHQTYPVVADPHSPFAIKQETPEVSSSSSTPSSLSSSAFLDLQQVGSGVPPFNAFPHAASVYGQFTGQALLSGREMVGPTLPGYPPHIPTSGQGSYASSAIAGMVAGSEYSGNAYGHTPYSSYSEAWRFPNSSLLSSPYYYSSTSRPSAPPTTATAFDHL
The nature of assay [3]: T. cruzi growth inhibition in host cells, dose response, cell-based, plate reader, dry powder, set 2 (AID 652275). The assay is classed as functional.
Assay [4] can be described thus: HEK293 cell cytotoxicity, dose response, cytotoxicity control, cherry-picks, set 5 (AID 1053117). Format: functional, cell-based.

Active and inactive are the calls of the source.

A word on the AC50: it is the midpoint of the concentration-response curve, whichever way the signal moves. On to `C[C@H]1CN([C@@H](C)CO)C(=O)c2c(c3ccccc3n2C)-c2ccccc2CO[C@@H]1CN(C)S(=O)(=O)c1cccc(F)c1`, for which the figures for the AC50 (in assay [1]; in assay [2]; on Paired box protein Pax-8) were 4.88 µM (active), 37.3 µM (active) and 11.6 µM (active), respectively.

Consider `COc1cccc(-c2ccc([C@H]3[C@H](CO)N4CCCCN(C(=O)Cc5ccncc5)C[C@@H]34)cc2)c1`, for which, in assay [3], the AC50 is 2.13 µM (active).

In the case of `CC(C)(O)C#Cc1cccc(-c2nc(C(=O)NCc3ccc4c(c3)OCO4)cc3c2[C@H](CCO)N([S+]([O-])C(C)(C)C)C3)c1` (some centres not stated), the AC50 in assay [3] is 2.44 µM (active).

On to `C[C@H](CO)N1C[C@H](C)[C@@H](CN(C)C(=O)c2cccc(F)c2)Oc2ncc(-c3ccccc3)cc2C1=O`, for which the AC50 in assay [4] was > 52 µM (inactive).

As to `CC(C)N1C[C@H](C)[C@@H](CN(C)Cc2ccc(Oc3ccccc3)cc2)Oc2c(cccc2-c2nn[nH]n2)C1=O`, the AC50 in assay [3] is 7.34 µM (active).
